Legend:
[1] = target: T1, B-Raf kinase (Homo sapiens, UniProt P15056); assay: Biochemical assay for B-Raf.1 (coupled pyruvate kinase/lactate dehydrogenase); conditions: read-out: BRAF.1 IC50
T1 construct: GST (N); purchased Sigma
Experimental: Biochemical Assay for B-Raf.1
(§1) Activity of B-Raf kinase (SEQ. ID NO: 2) was determined spectroscopically using a coupled pyruvate kinase/lactate dehydrogenase assay that continuously monitors the ATP hydrolysis-dependent oxidation of NADH (e.g., Schindler et al., Science, 2000, 289, 1938-1942). Assays were conducted in 384-well plates (100 μL final volume) using 0.13 nM B-Raf (Sigma), 1.5 units pyruvate kinase, 2.1 units lactate dehydrogenase, 1 mM phosphoenol pyruvate, 0.28 mM NADH, 30.1 nM MEK (SignalChem), and 1 mM ATP in assay buffer (100 mM Tris, pH 7.5, 15 mM MgCl2, 0.5 mM DTT, 0.1% octyl-glucoside, 0.002% (w/v) BSA, and 0.002% Triton X-100). Inhibition of B-Raf was measured by adding serial diluted test compound (final assay concentration of 1% DMSO). A decrease in absorption at 340 nm was monitored continuously for 6 h at 30° C. on a multi-mode microplate reader (BioTek). The reaction rate was calculated using the 4 to 5 h time frame. The reaction rate at each concentration of compound was converted to percent inhibition using controls (i.e., reaction with no test compound and reaction with a known inhibitor) and IC50 values were calculated by fitting a four-parameter sigmoidal curve to the data using Prism (GraphPad software).

[2] = system: A375 cells; assay: A375 cell proliferation assay (1), resazurin, 96-well; assay type: cell-based; conditions: Homo sapiens, A-375, inhibition of cell proliferation
Experimental: A375 Cell Proliferation Assay (1)
A375 cells (catalog (#CRL-1619) are obtained from the American Type Culture Collect (ATTC, Manassas, VA). Briefly, cells were grown in DMEM High Glucose supplemented with 10% characterized fetal bovine serum (Invitrogen, Carlsbad, CA) and 1% Penicillin/Streptomycin/L-Glutamine at 37° C., 5% CO2, and 95% humidity. Cells are expanded until reaching 70-95% confluency at which point they are sub-cultured or harvested for assay use. A serial dilution of test compound is dispensed into a 96-well black clear bottom plate in triplicate. Two thousand five hundred cells are added per well in 200 μL complete growth medium in the 96-well plate. Plates are incubated for 67-72 hours at 37° C., 5% CO2, and 95% humidity. At the end of the incubation, 40 μL of a 440 μM solution of resazurin (Sigma, St. Louis, MO) in PBS is added to each well of the plate and plates are incubated for an additional 5-6 hours at 37° C., 5% CO2, and 95% humidity. Plates are read on a Synergy2 or equivalent reader (Biotek, Winooski VT) using an excitation of 540 nm and an emission of 600 nm. Data is analyzed using Prism software (GraphPad, San Diego, CA) to calculate IC50 values.

[3] = target: T2, C-Raf kinase (Homo sapiens, UniProt P04049, Y340D/Y341D); assay: Biochemical assay for C-Raf.1 (coupled pyruvate kinase/lactate dehydrogenase); conditions: read-out: CRAF.1 IC50
T2 construct: Y340D,; GST (N); purchased Sigma
Experimental: Biochemical Assay for C-Raf.1
as §1, with “of C-Raf” for “of B-Raf”, “NO: 3)” for “NO: 2)”, “using 0.43” for “using 0.13”, “nM C-Raf” for “nM B-Raf”

[4] = target: T3, B-Raf (V600E) kinase (Homo sapiens, UniProt P15056, V600E); assay: Biochemical assay for B-Raf (V600E).1 (coupled pyruvate kinase/lactate dehydrogenase); conditions: read-out: BRAF V600E.1 IC50
T3 construct: B-Raf (V600E) residues 416-766 with a; GST (N); purchased SignalChem
Experimental: Biochemical Assay for B-Raf (V600E).1
Activity of B-Raf (V600E) (SEQ. ID NO: 4) kinase was determined spectroscopically using a coupled pyruvate kinase/lactate dehydrogenase assay that continuously monitors the ATP hydrolysis-dependent oxidation of NADH (e.g., Schindler et al., Science, 2000, 289, 1938-1942). Assays were conducted in 384-well plates (100 μL final volume) using 0.03 nM B-Raf (SignalChem), 1.5 units pyruvate kinase, 2.1 units lactate dehydrogenase, 1 mM phosphoenol pyruvate, 0.28 mM NADH, 30.1 nM MEK (SignalChem), and 1 mM ATP in assay buffer (100 mM Tris, pH 7.5, 15 mM MgCl2, 0.5 mM DTT, 0.1% octyl-glucoside, 0.002% (w/v) BSA, and 0.002% Triton X-100). Inhibition of B-Raf (V600E) was measured by adding serial diluted test compound (final assay concentration of 1% DMSO). A decrease in absorption at 340 nm was monitored continuously for 6 h at 30° C. on a multi-mode microplate reader (BioTek). The reaction rate was calculated using the 3 to 4 h time frame. The reaction rate at each concentration of compound was converted to percent inhibition using controls (i.e., reaction with no test compound and reaction with a known inhibitor) and IC50 values were calculated by fitting a four-parameter sigmoidal curve to the data using Prism (GraphPad software).

[5] = target: T4, A-Raf kinase (Homo sapiens, UniProt P10398, Y301D/Y302D); assay: Biochemical assay for A-Raf.1 (coupled pyruvate kinase/lactate dehydrogenase); conditions: read-out: ARAF.1 IC50
T4 construct: purchased Sigma
Experimental: Biochemical assay for A-Raf.1
as §1, with “A-Raf” for “B-Raf”, “NO. 1)” for “NO: 2)”, “5.55” for “0.13”

T3 sequence (P15056 416-766 V600E): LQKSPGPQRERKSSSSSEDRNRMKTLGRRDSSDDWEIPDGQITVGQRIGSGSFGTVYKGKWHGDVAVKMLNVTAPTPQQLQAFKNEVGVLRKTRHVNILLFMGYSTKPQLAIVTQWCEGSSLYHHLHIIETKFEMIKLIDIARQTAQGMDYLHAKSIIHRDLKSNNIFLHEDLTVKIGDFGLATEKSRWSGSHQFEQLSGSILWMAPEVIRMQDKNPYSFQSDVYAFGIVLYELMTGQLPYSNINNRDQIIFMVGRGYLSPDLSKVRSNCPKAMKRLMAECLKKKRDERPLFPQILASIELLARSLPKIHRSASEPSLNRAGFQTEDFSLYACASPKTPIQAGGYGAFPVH
T2 sequence (P04049 307-648 Y340D/Y341D): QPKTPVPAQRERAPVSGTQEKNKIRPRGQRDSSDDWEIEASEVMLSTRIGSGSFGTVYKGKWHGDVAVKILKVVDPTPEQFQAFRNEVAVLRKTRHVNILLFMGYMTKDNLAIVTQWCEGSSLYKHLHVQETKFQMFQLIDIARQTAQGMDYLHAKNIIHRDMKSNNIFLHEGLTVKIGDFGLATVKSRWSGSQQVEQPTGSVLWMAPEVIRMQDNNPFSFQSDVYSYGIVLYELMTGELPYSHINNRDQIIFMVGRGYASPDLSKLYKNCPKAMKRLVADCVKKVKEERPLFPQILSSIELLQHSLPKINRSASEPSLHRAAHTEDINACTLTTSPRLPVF
T4 sequence (P10398 with tags, fused parts or gaps Y301D/Y302D): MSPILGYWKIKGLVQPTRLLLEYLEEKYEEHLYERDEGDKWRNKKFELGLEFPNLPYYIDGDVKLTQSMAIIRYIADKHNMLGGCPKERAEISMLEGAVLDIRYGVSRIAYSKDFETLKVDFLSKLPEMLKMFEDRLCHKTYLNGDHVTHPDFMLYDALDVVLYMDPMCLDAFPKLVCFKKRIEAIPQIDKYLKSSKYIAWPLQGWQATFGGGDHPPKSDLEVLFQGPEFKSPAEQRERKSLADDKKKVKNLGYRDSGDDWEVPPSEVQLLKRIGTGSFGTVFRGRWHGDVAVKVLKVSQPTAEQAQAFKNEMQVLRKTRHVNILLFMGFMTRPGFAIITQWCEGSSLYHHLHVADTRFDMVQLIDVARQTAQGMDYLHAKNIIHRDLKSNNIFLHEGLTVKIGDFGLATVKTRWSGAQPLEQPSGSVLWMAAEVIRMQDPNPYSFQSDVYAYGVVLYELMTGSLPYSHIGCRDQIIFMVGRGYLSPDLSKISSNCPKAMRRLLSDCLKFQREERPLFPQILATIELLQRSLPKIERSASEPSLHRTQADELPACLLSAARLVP
T1 sequence (P15056 416-766): as the sequence (P15056 416-766 V600E) above, with E185V counted along it

IC50 [1] [nM] | IC50 [2] [nM] | IC50 [3] [nM] | IC50 [4] [nM] | IC50 [5] [nM] | SMILES
> 1000 | 1000 to 10000 | > 1000 | > 1000 | > 1000 | Cc1cc(F)c(NC(=O)NC[C@H]2CCO2)cc1-c1cc(OCCO)nc(-c2ccnc3[nH]ncc23)c1 [Example 93]
100 to 500 | 1000 to 10000 | ≤ 100 | ≤ 100 | > 1000 | Cc1cc(F)c(NC(=O)NCCC(C)(C)F)cc1-c1cc(OCCO)nc(-c2ccncc2)c1 [Example 25]
100 to 500 | 100 to 500 | ≤ 100 | ≤ 100 | > 1000 | CNc1cc(-c2cc(-c3cc(NC(=O)NCCC4(C(F)(F)F)CC4)c(F)cc3C)cc(OCCO)n2)ccn1 [Example 28]
≤ 100 | 1000 to 10000 | ≤ 100 | ≤ 100 | > 1000 | Cc1cc(F)c(NC(=O)NC2CCC(F)(F)CC2)cc1-c1cc(-c2cnn(C)c2)nc(N2CCOCC2)c1 [Example 39]
≤ 100 | 100 to 500 | ≤ 100 | ≤ 100 | > 1000 | Cc1cc(F)c(NC(=O)NCCC(C)(C)C)cc1-c1cc(OCCO)nc(C2CCOCC2)c1 [Example 9]
500 to 1000 | 1000 to 10000 | 100 to 500 | ≤ 100 | > 1000 | CC(=O)Nc1cc(-c2cc(-c3cc(NC(=O)NCCC4(C)CC4)c(F)cc3C)ccn2)ccn1 [Example 2, N-(4-(4-fluoro-2-methyl-5-(3-(2-(1-methylcyclopropyl)ethyl)ureido)phenyl)-[2,4′-bipyridin]-2′-yl)acetamide]
500 to 1000 | 1000 to 10000 | 100 to 500 | ≤ 100 | > 1000 | Cc1ncc(NC(=O)NCCC(C)(C)C)cc1-c1cc(N2CCOCC2)nc(N2CCOCC2)c1 [Example 19]
≤ 100 | 500 to 1000 | ≤ 100 | ≤ 100 | > 1000 | CNc1cc(-c2cc(-c3cc(NC(=O)NCCC4(C)CC4)c(F)cc3C)cc(OCCO)n2)ccn1 [Example 27]

The remaining lines, values behind:

SMILES | IC50 [1] [nM] | IC50 [2] [nM] | IC50 [3] [nM] | IC50 [4] [nM] | IC50 [5] [nM]
Cc1ccc(NC(=O)N[C@H]2CCc3ccccc32)cc1-c1cc(OCCO)nc(N2CCOCC2)c1 [Example 20] | 500 to 1000 | 500 to 1000 | 100 to 500 | ≤ 100 | > 1000
Cc1ccc(NC(=O)NC2CCCCCC2)cc1-c1cc(OCCO)nc(N2CCOCC2)c1 [Example 13] | 100 to 500 | 1000 to 10000 | ≤ 100 | ≤ 100 | > 1000
Cc1ccc(NC(=O)NCCC(C)(C)C#N)cc1-c1cc(-c2cnn(C)c2)nc(N2CCOCC2)c1 [Example 21] | 500 to 1000 | 1000 to 10000 | 100 to 500 | ≤ 100 | > 1000
Cc1ccc(NC(=O)NCCC(C)(C)C)cc1-c1cc(-c2cnn(C)c2)nc(N2CCOCC2)c1 [Example 6] | 100 to 500 | 1000 to 10000 | 100 to 500 | ≤ 100 | > 1000
Cc1cc(F)c(NC(=O)N2CCC(C)(C#N)C2)cc1-c1cc(OCCO)nc(-c2ccnc3[nH]ncc23)c1 (stereo not shown) [Example 95] | 500 to 1000 | 1000 to 10000 | 500 to 1000 | ≤ 100 | > 1000
COC(=O)Nc1cc(-c2cc(-c3cc(NC(=O)NCCC4CN(C)C4)cnc3C)cc(OCCO)n2)ccn1 [Example 183] | > 1000 | 1000 to 10000 | > 1000 | > 1000 | > 1000
Cc1ccc(NC(=O)NCCC(C)(C)C)cc1-c1cc(N2CCOCC2)nc(N2CC(C)(O)C2)n1 [Example 1, 1-(3,3-dimethylbutyl)-3-(3-(2-(3-hydroxy-3-methylazetidin-1-yl)-6-morpholinopyrimidin-4-yl)-4-methylphenyl)urea] | ≤ 100 | ≤ 100 | ≤ 100 | ≤ 100 | > 1000
Cc1ccc(NC(=O)NCCC(C)(C)C)cc1-c1cc(N2CCOCC2)nc(N2CC(O)C2)n1 [Example 11] | 500 to 1000 | 1000 to 10000 | 100 to 500 | ≤ 100 | > 1000
Cc1cc(F)c(NC(=O)NCCC2(C(F)(F)F)CC2)cc1-c1cc(N2CCOCC2)nc(N2CC(N(C)C)C2)n1 [Example 30] | > 1000 | 1000 to 10000 | 500 to 1000 | ≤ 100 | > 1000
Cc1cc(F)c(NC(=O)NCCC(C)(C)C#N)cc1-c1cc(OCCO)nc(-c2ccncc2)c1 [Example 41] | 100 to 500 | 1000 to 10000 | 100 to 500 | ≤ 100 | > 1000
Cc1cc(F)c(NC(=O)NCCC2(C)CC2)cc1-c1cc(OC2CCN(C)CC2)nc(-c2ccncc2)c1 [Example 36] | 100 to 500 | 1000 to 10000 | 100 to 500 | ≤ 100 | > 1000
Cc1cc(F)c(NC(=O)NCCC2(C)CC2)cc1-c1cc(OCCO)nc(-c2ccncc2)c1 [Example 32] | ≤ 100 | 1000 to 10000 | ≤ 100 | ≤ 100 | > 1000
